Experimental data reported in article PMC12090182, “Repurposing of the RIPK1-Selective Benzo[1,4]oxazepin-4-one Scaffold for the Development of a Type III LIMK1/2 Inhibitor” (ACS Chemical Biology, 2025).
Read-outs that look alike come from different tables or passages of the source.

Experiments:
Assay in all cases: biochemical
Format in all cases: binding
[1] = molecular target: ABL1(M351T)-phosphorylated (Homo sapiens, UniProt P00519, M351T); settings: compound concentration 100 nM; Entrez ABL1; read-out: Percent Control
MET(M1250T) = MET(M1250T) (Homo sapiens, UniProt P08581, M1250T); settings: 1000 nM, read-out: Percent Control
[2] = molecular target: 468 kinases including some pathogenic mutants (Homo sapiens, UniProt Q9H093); settings: SNARK (Entrez NUAK2), 100 nM; read-out: Percent Control
[3] = molecular target: 468 kinases including some pathogenic mutants (Homo sapiens, UniProt Q9BUB5); settings: MKNK1 (Entrez MKNK1), 100 nM; read-out: Percent Control
[4] = molecular target: 468 kinases including some pathogenic mutants (Homo sapiens, UniProt Q96Q40); settings: PFTAIRE2 (Entrez CDK15), 100 nM; read-out: Percent Control
[5] = molecular target: 468 kinases including some pathogenic mutants (Homo sapiens, UniProt Q99558); settings: NIK (Entrez MAP3K14), 1000 nM; read-out: Percent Control
[6] = molecular target: 468 kinases including some pathogenic mutants (Homo sapiens, UniProt O94921); settings: PFTK1 (Entrez CDK14), 100 nM; read-out: Percent Control
[7] = molecular target: 468 kinases including some pathogenic mutants (Homo sapiens, UniProt O75582); settings: 1000 nM, read-out: Percent Control
[8] = molecular target: 468 kinases including some pathogenic mutants (Homo sapiens, UniProt Q8TBX8); settings: PIP5K2C (Entrez PIP4K2C), 100 nM; read-out: Percent Control
[9] = molecular target: 468 kinases including some pathogenic mutants (Homo sapiens, UniProt P48730); settings: CSNK1D (Entrez CSNK1D), 100 nM; read-out: Percent Control
[10] = molecular target: 468 kinases including some pathogenic mutants (Homo sapiens, UniProt Q8N568); settings: DCAMKL2 (Entrez DCLK2), 100 nM; read-out: Percent Control
[11] = molecular target: 468 kinases including some pathogenic mutants (Homo sapiens, UniProt Q02156); settings: PRKCE (Entrez PRKCE), 1000 nM; read-out: Percent Control
[12] = molecular target: 468 kinases including some pathogenic mutants (Homo sapiens, UniProt Q13705); settings: ACVR2B (Entrez ACVR2B), 100 nM; read-out: Percent Control
[13] = molecular target: 468 kinases including some pathogenic mutants (Homo sapiens, UniProt Q9H0K1); settings: SIK2 (Entrez SIK2), 1000 nM; read-out: Percent Control
[14] = molecular target: 468 kinases including some pathogenic mutants (Homo sapiens, UniProt Q13237); settings: PRKG2 (Entrez PRKG2), 100 nM; read-out: Percent Control
[15] = molecular target: 468 kinases including some pathogenic mutants (Homo sapiens, UniProt Q16513); settings: PKN2 (Entrez PKN2), 1000 nM; read-out: Percent Control
[16] = molecular target: 468 kinases including some pathogenic mutants (Homo sapiens, UniProt Q9NYL2); settings: ZAK (Entrez ZAK), 1000 nM; read-out: Percent Control
[17] = molecular target: 468 kinases including some pathogenic mutants (Homo sapiens, UniProt P42336, E545K); settings: read-out: Percent Control
[18] = molecular target: 468 kinases including some pathogenic mutants (Homo sapiens, UniProt P35916); settings: FLT4 (Entrez FLT4), 100 nM; read-out: Percent Control
[19] = molecular target: 468 kinases including some pathogenic mutants (Homo sapiens, UniProt Q9BRS2); settings: RIOK1 (Entrez RIOK1), 100 nM; read-out: Percent Control
[20] = molecular target: 468 kinases including some pathogenic mutants (Homo sapiens, UniProt P00519, F317I); settings: read-out: Percent Control
[21] = molecular target: 468 kinases including some pathogenic mutants (Homo sapiens, UniProt P36888, D835Y); settings: read-out: Percent Control
[22] = molecular target: 468 kinases including some pathogenic mutants (Homo sapiens, UniProt P42679); settings: CTK (Entrez MATK), 100 nM; read-out: Percent Control
[23] = molecular target: 468 kinases including some pathogenic mutants (Homo sapiens, UniProt Q9H422); settings: HIPK3 (Entrez HIPK3), 100 nM; read-out: Percent Control
[24] = molecular target: 468 kinases including some pathogenic mutants (Homo sapiens, UniProt Q8IY84); settings: NIM1 (Entrez MGC42105), 1000 nM; read-out: Percent Control
[25] = molecular target: 468 kinases including some pathogenic mutants (Homo sapiens, UniProt Q02750); settings: MEK1 (Entrez MAP2K1), 1000 nM; read-out: Percent Control
[26] = molecular target: 468 kinases including some pathogenic mutants (Homo sapiens, UniProt O75747); settings: PIK3C2G (Entrez PIK3C2G), 100 nM; read-out: Percent Control
[27] = molecular target: 468 kinases including some pathogenic mutants (Homo sapiens, UniProt O43283); settings: LZK (Entrez MAP3K13), 100 nM; read-out: Percent Control

Chain of 468 kinases including some pathogenic mutants (Homo sapiens, UniProt O75582) (O75582 whole entry, change not shown): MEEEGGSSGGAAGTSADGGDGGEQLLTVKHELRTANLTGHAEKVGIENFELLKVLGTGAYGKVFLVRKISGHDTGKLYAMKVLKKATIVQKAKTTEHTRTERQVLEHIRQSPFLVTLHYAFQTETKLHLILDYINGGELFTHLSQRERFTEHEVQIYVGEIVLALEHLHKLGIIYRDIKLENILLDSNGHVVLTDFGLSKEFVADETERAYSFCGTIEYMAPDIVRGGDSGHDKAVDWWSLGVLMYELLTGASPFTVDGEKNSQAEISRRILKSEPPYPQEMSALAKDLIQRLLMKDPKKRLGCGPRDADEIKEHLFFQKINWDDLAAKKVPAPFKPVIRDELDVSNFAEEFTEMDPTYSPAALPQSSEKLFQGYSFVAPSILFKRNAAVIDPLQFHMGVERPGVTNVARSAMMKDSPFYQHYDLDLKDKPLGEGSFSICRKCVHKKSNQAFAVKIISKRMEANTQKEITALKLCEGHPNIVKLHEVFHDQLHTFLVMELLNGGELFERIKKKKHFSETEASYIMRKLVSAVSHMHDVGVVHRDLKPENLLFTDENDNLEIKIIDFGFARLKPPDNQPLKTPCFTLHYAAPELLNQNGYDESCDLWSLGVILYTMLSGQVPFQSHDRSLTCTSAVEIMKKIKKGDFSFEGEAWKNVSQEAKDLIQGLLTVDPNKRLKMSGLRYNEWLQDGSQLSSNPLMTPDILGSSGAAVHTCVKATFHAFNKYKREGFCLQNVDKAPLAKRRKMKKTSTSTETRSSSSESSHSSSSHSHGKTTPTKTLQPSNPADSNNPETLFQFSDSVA
Chain of 468 kinases including some pathogenic mutants (Homo sapiens, UniProt P48730) (P48730 whole entry, change not shown): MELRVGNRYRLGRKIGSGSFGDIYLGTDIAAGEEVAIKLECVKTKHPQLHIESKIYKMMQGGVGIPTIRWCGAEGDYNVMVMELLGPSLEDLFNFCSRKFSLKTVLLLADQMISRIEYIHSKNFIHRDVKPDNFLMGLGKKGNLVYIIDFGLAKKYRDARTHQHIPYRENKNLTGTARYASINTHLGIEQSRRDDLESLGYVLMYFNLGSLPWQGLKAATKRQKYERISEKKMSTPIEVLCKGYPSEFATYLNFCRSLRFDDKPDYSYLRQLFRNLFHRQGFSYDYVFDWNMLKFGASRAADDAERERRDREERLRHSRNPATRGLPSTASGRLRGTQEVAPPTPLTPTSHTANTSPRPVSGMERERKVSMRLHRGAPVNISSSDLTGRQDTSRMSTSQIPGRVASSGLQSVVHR
Chain of 468 kinases including some pathogenic mutants (Homo sapiens, UniProt Q9BUB5) (Q9BUB5 whole entry, change not shown): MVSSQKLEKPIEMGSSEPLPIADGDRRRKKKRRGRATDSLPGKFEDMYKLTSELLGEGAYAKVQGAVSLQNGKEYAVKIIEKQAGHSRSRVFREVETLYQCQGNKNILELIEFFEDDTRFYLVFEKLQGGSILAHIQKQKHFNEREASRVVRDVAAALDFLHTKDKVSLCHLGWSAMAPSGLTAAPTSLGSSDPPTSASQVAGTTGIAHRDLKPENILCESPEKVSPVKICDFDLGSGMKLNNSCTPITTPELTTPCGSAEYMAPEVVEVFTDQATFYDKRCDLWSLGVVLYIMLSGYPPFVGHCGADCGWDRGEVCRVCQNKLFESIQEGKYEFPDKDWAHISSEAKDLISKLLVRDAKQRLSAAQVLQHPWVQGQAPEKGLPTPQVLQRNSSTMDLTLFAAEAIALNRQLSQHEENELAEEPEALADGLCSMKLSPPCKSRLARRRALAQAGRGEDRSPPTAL
Chain of 468 kinases including some pathogenic mutants (Homo sapiens, UniProt Q8IY84) (Q8IY84 whole entry, change not shown): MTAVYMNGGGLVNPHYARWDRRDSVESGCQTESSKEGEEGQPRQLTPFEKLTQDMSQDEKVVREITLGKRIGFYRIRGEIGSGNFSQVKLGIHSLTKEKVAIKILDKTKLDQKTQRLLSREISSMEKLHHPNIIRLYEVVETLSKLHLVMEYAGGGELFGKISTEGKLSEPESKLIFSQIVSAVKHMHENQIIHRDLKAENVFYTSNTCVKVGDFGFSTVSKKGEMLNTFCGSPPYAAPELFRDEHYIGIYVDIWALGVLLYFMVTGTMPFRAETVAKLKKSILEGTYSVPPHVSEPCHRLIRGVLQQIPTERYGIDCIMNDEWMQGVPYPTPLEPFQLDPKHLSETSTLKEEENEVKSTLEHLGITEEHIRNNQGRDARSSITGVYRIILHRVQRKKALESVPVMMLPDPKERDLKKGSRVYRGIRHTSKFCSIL
Chain of 468 kinases including some pathogenic mutants (Homo sapiens, UniProt Q9BRS2) (Q9BRS2 whole entry, stated change not applied): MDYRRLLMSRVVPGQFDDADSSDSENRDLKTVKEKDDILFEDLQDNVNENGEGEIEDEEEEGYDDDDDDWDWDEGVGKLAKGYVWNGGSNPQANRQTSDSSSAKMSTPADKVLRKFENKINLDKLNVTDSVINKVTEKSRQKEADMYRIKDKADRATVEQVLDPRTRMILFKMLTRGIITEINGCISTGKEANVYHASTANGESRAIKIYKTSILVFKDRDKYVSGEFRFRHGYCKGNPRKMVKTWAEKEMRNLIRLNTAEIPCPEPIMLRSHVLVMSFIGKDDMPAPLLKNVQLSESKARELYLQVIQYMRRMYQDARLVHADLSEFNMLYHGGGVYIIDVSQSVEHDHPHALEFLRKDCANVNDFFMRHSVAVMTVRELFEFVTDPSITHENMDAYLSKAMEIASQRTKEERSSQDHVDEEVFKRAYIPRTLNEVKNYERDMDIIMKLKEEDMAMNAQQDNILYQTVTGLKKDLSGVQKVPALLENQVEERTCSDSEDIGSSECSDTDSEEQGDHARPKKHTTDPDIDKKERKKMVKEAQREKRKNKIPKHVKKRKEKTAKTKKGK
Chain of 468 kinases including some pathogenic mutants (Homo sapiens, UniProt Q99558) (Q99558 whole entry, change not shown): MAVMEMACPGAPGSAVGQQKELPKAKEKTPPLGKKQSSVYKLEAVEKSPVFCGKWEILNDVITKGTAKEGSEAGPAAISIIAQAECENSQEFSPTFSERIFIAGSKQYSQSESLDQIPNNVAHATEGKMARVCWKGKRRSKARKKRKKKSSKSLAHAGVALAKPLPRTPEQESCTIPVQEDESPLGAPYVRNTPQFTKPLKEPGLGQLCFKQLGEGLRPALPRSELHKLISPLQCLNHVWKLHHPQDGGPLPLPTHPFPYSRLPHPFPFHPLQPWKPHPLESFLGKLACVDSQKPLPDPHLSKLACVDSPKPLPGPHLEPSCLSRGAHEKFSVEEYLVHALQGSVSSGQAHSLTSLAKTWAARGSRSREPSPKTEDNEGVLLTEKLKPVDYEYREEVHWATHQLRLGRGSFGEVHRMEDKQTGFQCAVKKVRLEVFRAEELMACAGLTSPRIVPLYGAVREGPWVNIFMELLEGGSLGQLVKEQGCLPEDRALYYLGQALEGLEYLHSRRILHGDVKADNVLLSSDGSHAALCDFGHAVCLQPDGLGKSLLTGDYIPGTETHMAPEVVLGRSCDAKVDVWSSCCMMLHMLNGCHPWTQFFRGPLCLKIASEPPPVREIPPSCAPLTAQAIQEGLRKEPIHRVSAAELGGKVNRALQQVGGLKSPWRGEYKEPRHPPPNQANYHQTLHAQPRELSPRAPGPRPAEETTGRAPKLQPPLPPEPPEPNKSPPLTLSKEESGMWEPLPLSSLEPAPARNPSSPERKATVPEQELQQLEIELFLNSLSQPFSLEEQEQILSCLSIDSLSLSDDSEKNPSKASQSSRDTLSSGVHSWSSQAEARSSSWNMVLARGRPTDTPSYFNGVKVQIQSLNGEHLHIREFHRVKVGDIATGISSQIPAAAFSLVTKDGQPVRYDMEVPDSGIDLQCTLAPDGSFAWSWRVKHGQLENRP
Chain of 468 kinases including some pathogenic mutants (Homo sapiens, UniProt Q8N568) (Q8N568 whole entry, change not shown): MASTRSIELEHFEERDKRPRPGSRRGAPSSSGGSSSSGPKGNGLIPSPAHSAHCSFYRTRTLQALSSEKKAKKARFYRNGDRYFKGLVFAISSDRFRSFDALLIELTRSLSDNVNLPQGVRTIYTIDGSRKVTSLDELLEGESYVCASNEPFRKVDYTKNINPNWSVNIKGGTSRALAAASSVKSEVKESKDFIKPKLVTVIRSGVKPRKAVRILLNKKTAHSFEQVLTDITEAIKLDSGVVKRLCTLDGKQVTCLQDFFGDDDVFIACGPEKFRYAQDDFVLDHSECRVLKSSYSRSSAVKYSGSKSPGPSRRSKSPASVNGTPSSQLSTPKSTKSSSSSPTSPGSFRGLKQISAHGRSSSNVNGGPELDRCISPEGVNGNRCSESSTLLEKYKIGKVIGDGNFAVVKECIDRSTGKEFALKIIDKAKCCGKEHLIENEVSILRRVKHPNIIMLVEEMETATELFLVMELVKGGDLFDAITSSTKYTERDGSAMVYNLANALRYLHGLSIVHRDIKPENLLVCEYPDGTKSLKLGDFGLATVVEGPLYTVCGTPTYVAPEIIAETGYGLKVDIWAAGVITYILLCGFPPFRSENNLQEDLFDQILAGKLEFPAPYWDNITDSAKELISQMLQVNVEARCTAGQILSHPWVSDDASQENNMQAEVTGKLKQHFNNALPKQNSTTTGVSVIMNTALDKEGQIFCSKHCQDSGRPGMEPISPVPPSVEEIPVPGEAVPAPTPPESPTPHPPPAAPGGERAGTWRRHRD
Chain of 468 kinases including some pathogenic mutants (Homo sapiens, UniProt Q9H093) (Q9H093 whole entry, change not shown): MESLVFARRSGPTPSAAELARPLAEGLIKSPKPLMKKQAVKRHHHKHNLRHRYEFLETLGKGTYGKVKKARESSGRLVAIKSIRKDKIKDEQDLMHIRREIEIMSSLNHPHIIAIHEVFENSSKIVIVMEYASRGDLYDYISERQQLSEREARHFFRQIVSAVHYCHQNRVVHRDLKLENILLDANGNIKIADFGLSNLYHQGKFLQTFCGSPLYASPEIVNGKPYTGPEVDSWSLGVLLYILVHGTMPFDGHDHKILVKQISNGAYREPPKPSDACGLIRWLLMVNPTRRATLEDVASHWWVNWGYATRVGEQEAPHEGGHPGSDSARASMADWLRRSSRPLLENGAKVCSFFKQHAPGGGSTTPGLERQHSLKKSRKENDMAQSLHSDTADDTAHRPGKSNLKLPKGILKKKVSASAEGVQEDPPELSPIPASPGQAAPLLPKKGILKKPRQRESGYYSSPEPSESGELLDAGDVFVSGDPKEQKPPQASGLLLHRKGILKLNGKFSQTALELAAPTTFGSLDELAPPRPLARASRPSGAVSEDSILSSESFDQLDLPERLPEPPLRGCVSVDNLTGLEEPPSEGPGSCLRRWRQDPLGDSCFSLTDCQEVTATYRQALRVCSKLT

Work on CN1C(=O)[C@@H](N2CCc3c(nn(Cc4ccccc4)c3C(N)=O)C2=O)COc2cc(Cl)ccc21 [Compound 10, (S)-2-benzyl-6-(8-chloro-5-methyl-4-oxo-2,3,4,5-tetrahydrobenzo[b][1,4]oxazepin-3-yl)-7-oxo-4,5,6,7-tetrahydro-2H-pyrazolo[3,4-c]pyridine-3-carboxamide] yielded a remaining activity at 0.1 µM [1] of 92%, a remaining activity at 1 µM (MET(M1250T)) of 83% and a remaining activity at 0.1 µM [2] of 84%. The remaining activity at 0.1 µM [3] was 85%, the remaining activity at 0.1 µM [4] was 82% and the remaining activity at 1 µM [5] was 100%. For the same compound, the remaining activity at 0.1 µM [6] was 95%, the remaining activity at 1 µM ([7]; RPS6KA5(Kin.Dom.1-N-terminal) (Entrez RPS6KA5)) was 100% and the remaining activity at 1 µM ([7]; RPS6KA5(Kin.Dom.2-C-terminal) (Entrez RPS6KA5)) was 100%. It also gave a remaining activity at 0.1 µM [8] of 91%, a remaining activity at 0.1 µM [9] of 79% and a remaining activity at 0.1 µM [10] of 100%. For the same compound, the remaining activity at 1 µM [11] was 100%, the remaining activity at 0.1 µM [12] was 92% and the remaining activity at 1 µM [13] was 100%. The remaining activity at 0.1 µM [14] was 77%, the remaining activity at 1 µM [15] was 100% and the remaining activity at 1 µM [16] was 100%. The remaining activity at 0.1 µM [17] was 75%, the remaining activity at 0.1 µM [18] was 76% and the remaining activity at 0.1 µM [19] was 63%. For the same compound, the remaining activity at 0.1 µM [20] was 87%, the remaining activity at 0.1 µM [21] was 95% and the remaining activity at 0.1 µM [22] was 100%. For the same compound, the remaining activity at 0.1 µM [23] was 77%, the remaining activity at 1 µM [24] was 100% and the remaining activity at 1 µM [25] was 100%. The remaining activity at 0.1 µM [26] was 67% and the remaining activity at 0.1 µM [27] was 100%.
